The values that follow come from the supplement of paper PMC10627819.

One assay relates to S. aureus DSM 20231. Put plainly: Bliss interaction score (quartile over a dose matrix) (fitness difference); higher = more antagonism (negative = synergy). A digest of the protocol:
(§1)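 Quartiles summarise the Bliss score over technical, biological and donor/recipient replicates, where the score is observed minus expected fitness under a product model. Expected fitness uses single-drug values inferred from combination data. Fitness is OD595 at entry into stationary phase over the plate's robust no-drug mean, capped at 1.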

Assay [1] has as its system S. pneumoniae D39V. The assay is described as above. The essentials:
as §1

Another assay relates to B. subtilis 168. Described as above. The essentials:
as §1

The subject of another assay is S. aureus Newman. The assay is described as above. The essentials: as §1
For assay [2], the system named is S. pneumoniae D39V. Description: fitness (endpoint OD595 vs no drug) (fraction); higher = more growth. A digest of the protocol:
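Background-subtracted growth curves were the basis for fitness, taken as the optical density at entry into stationary phase over the robust mean of no-drug control wells. A cap of 1 was applied. The curves came from OD595 readings every 30 min for 14 h at 37 °C, in 384-well plates seeded at OD595 0.01 with 30 µl, or 55 µl for S. pneumoniae.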
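Throughout, for Bliss interaction score (quartile over a dose matrix): first quartile when negative (synergy) and third quartile when positive (antagonism).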

For `CC[C@H]1OC(=O)[C@H](C)[C@@H](O[C@H]2C[C@@](C)(OC)[C@@H](O)[C@H](C)O2)[C@H](C)[C@@H](O[C@@H]2O[C@H](C)C[C@H](N(C)C)[C@H]2O)[C@](C)(OC)C[C@@H](C)C(=O)[C@H](C)[C@@H](O)[C@]1(C)O` [Clarithromycin] + C/C(=C\C(=O)OCCCCCCCCC(=O)O)C[C@@H]1OC[C@H](C[C@@H]2O[C@H]2[C@@H](C)[C@H](C)O)[C@@H](O)[C@H]1O [Pseudomonic acid], the Bliss interaction score amounted to 0.0125 in the assay with S. aureus DSM 20231, 0.0643 in the assay with S. pneumoniae D39V [1], 0.0528 in the assay with B. subtilis 168 and 0.0379 in the assay on S. aureus Newman. Further, the fitness in the assay on S. pneumoniae D39V [2] (first compound 0.007812 µg/mL, partner 0.03 µg/mL, one replicate) was determined as 0.925; in the assay on S. pneumoniae D39V [2] (first compound 0.007812 µg/mL, partner 0.06 µg/mL, one replicate) it was 0.841; in the assay on S. pneumoniae D39V [2] (first compound 0.007812 µg/mL, partner 0.12 µg/mL, one replicate), 0.68; with S. pneumoniae D39V [2] (first compound 0.01562 µg/mL, partner 0.03 µg/mL, one replicate), 0.852; in the assay with S. pneumoniae D39V [2] (first compound 0.01562 µg/mL, partner 0.06 µg/mL, one replicate), 0.838; in the assay on S. pneumoniae D39V [2] (first compound 0.01562 µg/mL, partner 0.12 µg/mL, one replicate) it was 0.615. The fitness with S. pneumoniae D39V [2] (first compound 0.03125 µg/mL, partner 0.03 µg/mL, one replicate) amounted to 0.667; in the assay on S. pneumoniae D39V [2] (first compound 0.03125 µg/mL, partner 0.06 µg/mL, one replicate), 0.673; in the assay with S. pneumoniae D39V [2] (first compound 0.03125 µg/mL, partner 0.12 µg/mL, one replicate) it was 0.412; with S. pneumoniae D39V [2] (first compound 0.0625 µg/mL, partner 0.03 µg/mL), 0.683; with S. pneumoniae D39V [2] (first compound 0.0625 µg/mL, partner 0.12 µg/mL), 0.431; with S. pneumoniae D39V [2] (first compound 0.07 µg/mL, partner 0.03 µg/mL), 0.159. Besides, the fitness in the assay with S. pneumoniae D39V [2] (first compound 0.07 µg/mL, partner 0.06 µg/mL) worked out at 0.12; in the assay on S. pneumoniae D39V [2] (first compound 0.07 µg/mL, partner 0.12 µg/mL) it was 0.101; with S. pneumoniae D39V [2] (first compound 0.125 µg/mL, partner 0.03 µg/mL), 0.427; with S. pneumoniae D39V [2] (first compound 0.125 µg/mL, partner 0.06 µg/mL) it was 0.399; with S. pneumoniae D39V [2] (first compound 0.125 µg/mL, partner 0.12 µg/mL), 0.24; in the assay on S. pneumoniae D39V [2] (first compound 0.14 µg/mL, partner 0.03 µg/mL), 0.0976. For the same compound, the fitness came out at 0.102 in the assay on S. pneumoniae D39V [2] (first compound 0.14 µg/mL, partner 0.06 µg/mL); 0.0908 with S. pneumoniae D39V [2] (first compound 0.14 µg/mL, partner 0.12 µg/mL); 0.258 in the assay with S. pneumoniae D39V [2] (first compound 0.25 µg/mL, partner 0.03 µg/mL); 0.174 in the assay with S. pneumoniae D39V [2] (first compound 0.25 µg/mL, partner 0.06 µg/mL); 0.117 in the assay on S. pneumoniae D39V [2] (first compound 0.25 µg/mL, partner 0.12 µg/mL); 0.0736 in the assay on S. pneumoniae D39V [2] (first compound 0.28 µg/mL, partner 0.03 µg/mL). The fitness with S. pneumoniae D39V [2] (first compound 0.28 µg/mL, partner 0.06 µg/mL) was found to be 0.0966; in the assay with S. pneumoniae D39V [2] (first compound 0.28 µg/mL, partner 0.12 µg/mL), 0.0699.
For `CCC[C@@H]1C[C@@H](C(=O)N[C@@H]([C@H]2O[C@H](SC)[C@H](O)[C@@H](O)[C@H]2O)[C@@H](C)O)N(C)C1` [Lincomycin] + CN[C@H](CC(C)C)C(=O)N[C@H]1C(=O)N[C@@H](CC(N)=O)C(=O)N[C@H]2C(=O)N[C@H]3C(=O)N[C@H](C(=O)N[C@H](C(=O)O)c4cc(O)cc(O)c4-c4cc3ccc4O)[C@H](O[C@H]3C[C@](C)(N)[C@@H](O)[C@H](C)O3)c3ccc(c(Cl)c3)Oc3cc2cc(c3O[C@@H]2O[C@H](CO)[C@@H](O)[C@H](O)[C@H]2O[C@H]2C[C@](C)(NCc3ccc(-c4ccc(Cl)cc4)cc3)[C@@H](O)[C@H](C)O2)Oc2ccc(cc2Cl)[C@H]1O [Oritavancin], the Bliss interaction score in the assay on S. aureus DSM 20231 is -0.0375; in the assay with S. pneumoniae D39V [1] it was 0.0612; in the assay on B. subtilis 168 it was 0.0264; in the assay on S. aureus Newman, -0.0583.
On to `CCC[C@@H]1C[C@@H](C(=O)N[C@@H]([C@H]2O[C@H](SC)[C@H](O)[C@@H](O)[C@H]2O)[C@@H](C)O)N(C)C1` [Lincomycin] + CO[C@@]12[C@H](COC(N)=O)C3=C(C(=O)C(C)=C(N)C3=O)N1C[C@@H]1N[C@@H]12 [MitomycinC], for which the Bliss interaction score in the assay on S. aureus DSM 20231 was -0.0874; with S. pneumoniae D39V [1], -0.0879; with B. subtilis 168 it was 0.0735; in the assay with S. aureus Newman, -0.0572.
Turning to `CCC[C@@H]1C[C@@H](C(=O)N[C@@H]([C@H]2O[C@H](SC)[C@H](O)[C@@H](O)[C@H]2O)[C@@H](C)O)N(C)C1` [Lincomycin] + Oc1cc(Cl)ccc1Oc1ccc(Cl)cc1Cl [Triclosan], the Bliss interaction score is -0.224 with S. aureus DSM 20231, -0.119 in the assay on S. pneumoniae D39V [1], -0.0218 in the assay on B. subtilis 168 and 0.0423 in the assay on S. aureus Newman.
As for `COc1c(N2C[C@@H]3CCCN[C@@H]3C2)c(F)cc2c(=O)c(C(=O)O)cn(C3CC3)c12` [Moxifloxacin] + C/C(=C\C(=O)OCCCCCCCCC(=O)O)C[C@@H]1OC[C@H](C[C@@H]2O[C@H]2[C@@H](C)[C@H](C)O)[C@@H](O)[C@H]1O [Pseudomonic acid], the Bliss interaction score was -0.019 in the assay with S. aureus DSM 20231, 0.072 with S. pneumoniae D39V [1], 0.0399 with B. subtilis 168 and 0.0227 in the assay on S. aureus Newman.
In the same order, the values of `COc1c(N2C[C@@H]3CCCN[C@@H]3C2)c(F)cc2c(=O)c(C(=O)O)cn(C3CC3)c12` [Moxifloxacin] + CC1(C)S[C@@H]2[C@H](NC(=O)Cc3ccccc3)C(=O)N2[C@H]1C(=O)O [PenicillinG] are 0.0629, 0.0895, 0.0377 and -0.0783.
As for `COc1c(N2C[C@@H]3CCCN[C@@H]3C2)c(F)cc2c(=O)c(C(=O)O)cn(C3CC3)c12` [Moxifloxacin] + CC[C@H]1OC(=O)[C@H](C)C(=O)[C@H](C)[C@@H](O[C@@H]2O[C@H](C)C[C@H](N(C)C)[C@H]2O)[C@](C)(OC)C[C@@H](C)C(=O)[C@H](C)[C@H]2N(CCCCn3cnc(-c4cccnc4)c3)C(=O)O[C@]12C [Telithromycin], the Bliss interaction score in the assay on S. aureus DSM 20231 was 0.0615; in the assay with S. pneumoniae D39V [1] it was 0.0543; with B. subtilis 168, 0.0281; with S. aureus Newman it was 0.0472.
For the compound `COc1c(N2C[C@@H]3CCCN[C@@H]3C2)c(F)cc2c(=O)c(C(=O)O)cn(C3CC3)c12` [Moxifloxacin] + CN[C@H](CC(C)C)C(=O)N[C@H]1C(=O)N[C@@H](CC(N)=O)C(=O)N[C@H]2C(=O)N[C@H]3C(=O)N[C@H](C(=O)N[C@H](C(=O)O)c4cc(O)cc(O)c4-c4cc3ccc4O)[C@H](O[C@H]3C[C@](C)(N)[C@@H](O)[C@H](C)O3)c3ccc(c(Cl)c3)Oc3cc2cc(c3O[C@@H]2O[C@H](CO)[C@@H](O)[C@H](O)[C@H]2O[C@H]2C[C@](C)(NCc3ccc(-c4ccc(Cl)cc4)cc3)[C@@H](O)[C@H](C)O2)Oc2ccc(cc2Cl)[C@H]1O [Oritavancin], the Bliss interaction score was -0.0425 in the assay on S. aureus DSM 20231, -0.052 in the assay with S. pneumoniae D39V [1], 0.024 in the assay on B. subtilis 168 and 0.0436 in the assay with S. aureus Newman.
